Experimental data reported in US20220127335A1, “TETRAMERIC PROTEIN SCAFFOLDS AS NANO-CARRIERS OF THERAPEUTIC PEPTIDES FOR TREATING CANCER AND OTHER DISEASES” (UNIVERSITY OF MARYLAND, BALTIMORE, priority 2019, published 2022).
Residue numbers refer to the chain shown, from its start. Where two headings read alike, the source gives them in different places.

Legend:
[1] = end of three-week treatment
[2] = test system: p53, p21, PUMA, NOXA in HCT116 p53^+/+ cells; assay: Western blotting of p53, p21, PUMA, NOXA; assay type: cell-based; details: 12.5 μM, 48 h
Protocol: The primary antibodies were from Santa Cruz Biotechnology (p53), Calbiochem (p21, PUMA and NOXA) and Sigma-Aldrich (β-actin), and secondary antibodies conjugated with horseradish peroxidase from Calbiochem.
T-test was performed for statistical analysis, * standing for p<0.05, *** for p<0.001. The data are the means±SD of three independent Western blotting assays.

[3] = Complete blood cell analysis after 21-day treatment; details: end of three-week treatment
Protocol: (§1) Statistical analysis was performed using T-test, NS standing for no significant difference.

[4] = test system: HCT116 p53^+/+ xenograft tumors; assay: Tumor growth inhibition in nude mouse xenograft model; assay type: in vivo, BALB/c nude mice; details: 5 mg/Kg subcutaneous every other day, 3 weeks
[5] = test system: HCT116 p53^+/+ xenograft tumors; assay: Histopathology of xenograft tumors (H&E and TUNEL staining); assay type: in vivo, BALB/c nude mice; details: tumors after three-week treatment, 5 mg/Kg
Excerpt: Representative tumors from each treatment group were fixed with formaldehyde, dehydrated and sliced into 5 μm-thick sections, and subjected to H&E staining according to standard protocols (scale bar: 50 μm).
FIG. 7F is the terminal deoxynucleotidyl transferase dUTP nick end labeling (TUNEL) assay to stain fragmented DNA in apoptotic cells (scale bar: 50 μm).

[6] = test system: HCT 116 p53^+/+ cells; assay: Cellular uptake by flow cytometry and confocal microscopy; assay type: cell-based
Protocol: HCT 116 p53^+/+ cells were seeded in a 12-well plate at a density of 30,000 cells/well, cultured for 24 h, and treated with peptide or protein at 10 μM for 4 h before flow cytometric analysis.
Hoechst 33342 blue dye was used for nuclei staining.
Peptide/protein internalization and cytosolic release were also examined using both confocal microscopy and flow cytometry.
Cationic cell penetrating peptides as a carrier are known to promote cellular uptake of cargos primarily through the […], which is inhibited by heparin but not by amiloride. To better understand the mechanism of cellular uptake of ^PMIBcr/Abl-R6, confocal microscopic analysis was performed on cells treated with heparin or amiloride.

[7] = test system: HCT116 p53^+/+ cells; assay: Cell viability (CCK-8), HCT116 p53^+/+; assay type: cell-based; details: 48 h after treatment, 1.56 μM to 50 μM
Protocol: (§2) Following a 2-h incubation with CCK-8 reagents, absorbance values at 450 nm were measured on a microplate reader, and percent cell viability was calculated as (Atreatment−Ablank)/(Acontrol−Ablank)×100%. The data are the means of three independent assays.
Three independent assays were performed.

[8] = mouse, in vivo
Protocol: as §1

[9] = target: the molecule itself; assay: self-association into tetramer; SEC, DLS, fluorescence polarization, SAXS
[10] = test system: HCT116 p53^−/− cells; assay: Cell viability (CCK-8), HCT116 p53^−/−; details: 48 h after treatment
Protocol: as §2

[11] = test system: HCT116 p53^+/+ cells; assay: Apoptosis by flow cytometry (annexin V / propidium iodide); assay type: cell-based; details: 12.5 μM, 48 h
Protocol: Apoptosis was detected using a standard apoptotic kit from Biolegend, including APC labeled anti-annexin V antibody and a propidium iodide solution.
Three independent FACS assays were performed, and data are shown as the means±SD (n=3). p values were calculated by t-test (***, p<0.001).

[12] = target: T1, MDM2 (p53-binding domain) (UniProt Q00987 25-109, limits assumed); assay: ITC, MicroCal ITC 200, 25° C., 20 mM Tris/HCl pH 7.4
T1 construct: The ITC legends say only 'MDM2'
T1 sequence (Q00987 25-109 limits assumed): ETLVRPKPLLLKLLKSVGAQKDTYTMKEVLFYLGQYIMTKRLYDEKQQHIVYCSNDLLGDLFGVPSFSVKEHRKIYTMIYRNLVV

COc1ccc(C2=N[C@@H](c3ccc(Cl)cc3)[C@@H](c3ccc(Cl)cc3)N2C(=O)N2CCNC(=O)C2)c(OC(C)C)c1 [Nutlin-3, reference compound]
toxicity to liver and kidney tissues (H&E) [1]: no overt toxicity
expression of p21, PUMA and NOXA (Western blotting) [2]: upregulation
p53 level (Western blotting) [2]: significantly stabilized p53
blood cell counts (WBC, LYM, MID, GRN, RBC, PLT) versus mock-treated control [3]: no statistically significant difference

^PMIBcr/Abl-R6: Bcr/Abl tetramerization domain with PMI grafted in place of residues 5-16, C-terminally extended by Arg-repeating hexapeptide (R6); 78 residues, tetramer
effect on tumor growth [4]: significantly inhibited it
necrotic and apoptotic tumor cells (H&E and TUNEL) [5]: massive necrotic and apoptotic tumor cells
cellular uptake (flow cytometry) ([6]; BDP TR-labeled, 10 μM, 4 h): much more efficiently
cytosolic distribution (confocal microscopy) ([6]; BDP TR-labeled, 10 μM, 4 h): cytosolic distribution
effect of amiloride on internalization ([6]; amiloride 3 mM, 12 h before addition): little effect
effect of heparin on internalization ([6]; heparin sodium 5 mM, 12 h before addition): almost completely blocked it
expression of p21, PUMA and NOXA (Western blotting) [2]: upregulation
p53 level (Western blotting) [2]: significantly stabilized p53
cell viability / growth inhibition [7]: dose-dependent growth inhibition

B1: ^PMIBcr/Abl: Bcr/Abl tetramerization domain with PMI grafted in place of residues 5-16, without R6; negative control (protein)
chain: MVDPTSFAEYWALLSPDSEPPRMELRSVGDIEQELERAKASIRRLEQEVNQERFRMIYLQTLLAKEKKSYDR
toxicity to liver and kidney tissues (H&E) [1]: no overt toxicity
blood cell counts (WBC, LYM, MID, GRN, RBC, PLT) versus mock-treated control [8]: no statistically significant difference
effect on tumor growth [4]: marginally active
necrotic and apoptotic tumor cells (H&E and TUNEL) [5]: partial activity

B2: ^PMIBcr/Abl-R6 (designed binder)
chain: MVDPTSFAEYWALLSPDSEPPRMELRSVGDIEQELERAKASIRRLEQEVNQERFRMIYLQTLLAKEKKSYDRRRRRRR
notes: Bcr/Abl tetramerization domain with PMI grafted in place of residues 5-16 and a C-terminal Arg hexapeptide (R6); 78 residues, chemically synthesized by native chemical ligation; Exists as a tetramer in aqueous buffer
binding result [9]: binds

B3: Bcr/Abl-R6 (other)
chain: B2 chain with T5V, S6G, Y10A, A12K, L13A, L14Q, S15F
notes: Negative control scaffold without the PMI graft: Bcr/Abl tetramerization domain with C-terminal R6; Chemically synthesized; tetramer in aqueous buffer
cell viability [10]: neither PMI nor Bcr/Abl-R6 had any effect on the viability
toxicity to liver and kidney tissues (H&E) [1]: no overt toxicity
blood cell counts (WBC, LYM, MID, GRN, RBC, PLT) versus mock-treated control [8]: no statistically significant difference
effect on tumor growth [4]: no effect on tumor growth
necrotic and apoptotic tumor cells (H&E and TUNEL) [5]: lack of activity
apoptosis (FACS) [11]: largely unaffected
binding result [12]: no binding
cell viability / growth inhibition [7]: neither PMI nor Bcr/Abl-R6 had any effect on the viability
